Results taken from patent US20050027003A1, “Methods of therapeutic treatment using retinoids with reduced side effects” (Allergan, Inc., priority 2003, published 2005).

How the values were obtained:
[1] = system: patients with severe nodulocystic acne; test: Example 10: placebo-controlled parallel-group study of oral tazarotene in severe nodulocystic acne; type: in vivo, human; details: for patients withdrawing due to adverse events: placebo 0%
Text: A multicenter, double-blind, randomized, placebo-controlled parallel-group study is undertaken to determine the efficacy of orally administered tazarotene in treating severe nodulocystic acne.
In addition, washout periods for other medications for this study are: 1 week for vitamin A supplements >5000 IU; 2 weeks for topical anti-acne medications (e.g., retinoids, azelaic acid, benzoyl peroxide); 2 weeks for topical or systemic antibiotic therapy that may alter the course of acne; and 6 months for systemic retinoids.
Patients are randomized to receive placebo or oral tazarotene (0.75, 1.5, 3, or 6 mg), in a 1:1:1:1:1 ratio once daily for 24 weeks. After this, the patients are followed without treatment for an additional 12 weeks. Patients discontinuing from the treatment period due to adverse effects or lack of efficacy are eligible for entry into the post-treatment phase.
In the study, overall acne severity is rated as: none (no inflammatory acne lesions); mild (few to several papules or pustules, no nodulocystic lesions); moderate (several to many papules or pustules, few to several nodulocystic lesions); and severe (numerous or extensive papules or pustules, many, for example, at least about 5 or at least about 10, nodulocystic lesions).
Treatment success is defined as at least moderate (about 50%) improvement on the following 7-point global response scale: • 0=completely cleared • 1=almost cleared (about 90% improvement) • 2=marked response (about 75% improvement) • 3=moderate response (about 50% improvement) • 4=slight response (about 25% improvement) • 5=condition unchanged • 6=condition worsened
In this study, facial nodulocystic lesion count includes lesions greater than 5 mm in size. Facial papular/pustular lesion count includes lesions less than or equal to 5 mm in size. Facial non-inflammatory lesion count includes open and closed comedones.
Sebum output is assessed every 4 weeks at selected centers using the Sebutape® patches, sold by Cuderm Corporation. Urinalysis, chemistry, and hematology values are monitored. Bone formation and resorption assessments (serum bone alkaline phosphatase and serum amino terminal telopeptides, respectively) at selected centers are monitored.
Bone mineral density of spine and proximal femur at selected centers is monitored. Ligament calcification or osteophyte formation (lateral X-ray of the cervical and thoracic spine, and ankle calcaneous) is monitored. Epiphyseal growth plate closure (internal oblique X-ray of the ankle in patients less than or equal to 21 years old) is monitored.

[2] = system: patients with moderate to very severe plaque psoriasis; test: Example 4: open-label extension study of oral tazarotene in plaque psoriasis; type: in vivo, human; details: 4.5 mg once daily
Procedure: Two multicenter, double-blind, placebo-controlled studies ware conducted to evaluate the efficacy and safety of oral tazarotene (4.5 mg once daily) in patients with moderate to very severe plaque psoriasis. […] Efficacy evaluations include overall lesional assessment (OLA), percent body surface area involvement, global response to treatment, plaque elevation, scaling, and erythema. OLA is graded on a 6-point scale (0=none, 1=minimal, 2=mild, 3=moderate, 4=severe, 5=very severe).

[3] = Example 8: PK and PD interactions of oral tazarotene and oral contraceptives; type: in vivo, human; details: up to 6 mg once daily
Procedure: It is the objective of this study to determine if there are pharmacokinetic (PK) and pharmacodynamic (PD) interactions between tazarotene and commonly prescribed oral contraceptives (OCs) when coadministered together.
Three separate clinical studies are conducted to evaluate the PK and PD interactions of oral tazarotene and OCs in healthy volunteers. Two studies evaluate daily doses of norethindrone (NE)/ethinyl estradiol (EE) with daily doses of tazarotene 1.1 mg (N=27) and 6 mg (N=29). The third study assesses the daily doses of norgestimate (NGM)/EE with daily doses of tazarotene 6 mg (N=26). OCs are administered for three consecutive menstrual cycles. Daily doses of tazarotene are started during the 2nd cycle and continued through the end of the studies. PK parameters for EE, NE, and NGM (AUC0-24 and Cmax) are determined before tazarotene dosing and after tazarotene dosing on day 6 of the 2nd and 3rd cycles. Serum concentrations of luteinizing hormone (LH) and follicle-stimulating hormone (FSH)-markers of contraceptive efficacy are also evaluated before tazarotene dosing and after tazarotene dosing on days 2, 4, and 6 of the 2nd and 3rd cycles. Serum progesterone levels are assessed on days 18 and 20 of the 2nd and 3rd cycles. […]

patients = test: Example 3: two placebo-controlled 24-week safety studies plus dose-response evaluations of oral tazarotene; type: in vivo, human; details: for incidence of patients discontinuing due to adverse effects: placebo 3%
Procedure: Two multicenter, double-blind, randomized, placebo-controlled 24-week studies of identical design are conducted to evaluate the safety of oral tazarotene. In addition, 16- to 24-week dose-response evaluations are performed.
In the two safety trials, the incidence of adverse side effects with a 4.5 mg dose administered orally once daily is compared to the incidence of the same side effects with a placebo. […] The majority of these were mild in severity and typical of adverse effects associated with oral retinoids.

AP1 = AP1 antagonism
[4] = 0.75 to 6 mg once daily, 24 weeks

## CCOC(=O)c1ccc(C#Cc2ccc3c(c2)C(C)(C)CCS3)nc1 [tazarotene]
[1]; 0.75 mg group (2/35)
  patients withdrawing due to adverse events: 6%
[1]; 1.5 mg group (0/37)
  patients withdrawing due to adverse events: 0%
[1]; 3 mg and 6 mg, week 24 and throughout post-treatment phase, p≦0.05
  incidence of treatment success (≧50% global improvement) vs placebo: significantly higher incidence
[1]; 3 mg group (2/37)
  patients withdrawing due to adverse events: 5%
[1]; 6 mg group (1/36)
  patients withdrawing due to adverse events: 3%
[1]; 6 mg group, end of the post-treatment phase
  percentage of patients with at least a 90% reduction in facial nodulocystic lesion count vs placebo: significant superiority over placebo
[1]; 6 mg, week 16 until end of post-treatment phase, p≦0.01
  reduction of overall acne severity: significantly more than placebo
[1]; [4]
  bone formation and resorption (serum bone alkaline phosphatase, serum amino terminal telopeptides): do not appear to be altered
  changes in urinalysis, chemistry, or hematology measures (incl. liver function tests, triglycerides, total cholesterol, HDL cholesterol): None of the treatment groups show any consistent clinically significant changes
[1]; from week 8 onward
  reductions in number of facial papules or pustules and facial non-inflammatory acne lesions vs placebo: consistently greater reductions
  reductions in number of total facial nodulocystic lesions vs placebo: consistently greater reductions
[1]; once-daily doses of 1.5, 3, and 6 mg
  efficacy in severe nodulocystic acne: efficacious
[2]
  changes in liver function test values or cholesterol levels: no clinically significant changes
  serious adverse events considered related to the study treatment: no serious adverse events
[2]; 12 weeks, across both groups
  incidence of arthralgia: 20%
  incidence of asthenia: 6%
  incidence of back pain: 11%
  incidence of cheilitis: 70%
  incidence of hypertriglyceridemia: 6%
  incidence of myalgia: 15%
[3]
  effect on PK or efficacy of NE/EE and NGM/EE oral contraceptives: does not affect
patients; 4.5 mg (n=348)
  incidence of patients discontinuing due to adverse effects: 3%
patients; 4.5 mg orally once daily vs placebo
  incidence of hypertriglyceridemia, hypercholesterolemia, abnormal liver function tests, increased alanine aminotransferase, increased aspartate aminotransferase, desquamation, eye dryness, alopecia: essentially the same incidence
patients; 6.3 mg (n=16)
  incidence of patients discontinuing due to adverse effects: 13%
patients; 0.4 to 1.1 mg (n=105)
  incidence of patients discontinuing due to adverse effects: approximately 2%
patients; 2.1 to 2.8 mg (n=21)
  incidence of patients discontinuing due to adverse effects: 10%
patients; (n=14)
  incidence of patients discontinuing due to adverse effects: 0%
AP1
  AP1 antagonism: potent
